Data as given in US20170007610A1, “NOVEL HETEROBICYCLIC COMPOUNDS AS KAPPA OPIOID AGONISTS” (priority 2014, published 2017).
Where two headings read alike, the source gives them in different places.

Experiments:
ICR mice [1] = test: Assessment of CNS effects (spontaneous locomotion, sedation, catalepsy), threshold dose; type: in vivo; conditions: lowest dose which shows pharmacodynamic effect (locomotion, sedation, catalepsy), oral or i.v.
Description: (§1) All the animal experiments were carried out in ICR mice, bred in-house. Animals were housed in groups of 6 animals per cage, for a week, in order to habituate them to vivarium conditions (25±4° C., 60-65% relative humidity, 12:12 h light: dark cycle, with lights on at 7.30 am). All the animal experiments were carried out according to the internationally valid guidelines following approval by the ‘Zydus Research Center animal ethical committee’.
Assessment of CNS Effects of Test Compounds
Test compounds were dissolved in normal saline injected by oral or i.v., routes in ICR mice tail vein. […] The dose is scaled down or up if pharmacodynamic effect is present or absent respectively.

ICR mice [2] = test: Acetic acid-induced writhing model; type: in vivo; conditions: acetic acid induced pain model, oral or i.v. administration, writhes for 15 min; for ED50: Mus musculus, 0.25 h, read-out: In-vivo ED50
Description: as §1
Following oral or i.v. administration of test compounds, mice are rested for 5 min before i.p. injection with 10 ml/kg of 0.6% v/v acetic acid in normal saline. […] A writhe is defined as a constriction of the abdominal area, often with extension of the hind legs. Percentage maximum possible effect (MPE) was calculated as below:
% MPE=100−[(No. of writhes in treated mice/No. of writhes in vehicle treated mice)]×100
ED50 dose is determined using GraphPad Prism.

kappa opioid receptor [3] = target: T1, kappa opioid receptor (Mus musculus, UniProt P33534); test: Ex-vivo KOR agonistic activity, electrically stimulated mouse vas deferens (MVD) model
T1 construct: from tissue; host or cells: mouse vas deferens (male Swiss Albino mice)
T1 sequence (P33534 whole entry): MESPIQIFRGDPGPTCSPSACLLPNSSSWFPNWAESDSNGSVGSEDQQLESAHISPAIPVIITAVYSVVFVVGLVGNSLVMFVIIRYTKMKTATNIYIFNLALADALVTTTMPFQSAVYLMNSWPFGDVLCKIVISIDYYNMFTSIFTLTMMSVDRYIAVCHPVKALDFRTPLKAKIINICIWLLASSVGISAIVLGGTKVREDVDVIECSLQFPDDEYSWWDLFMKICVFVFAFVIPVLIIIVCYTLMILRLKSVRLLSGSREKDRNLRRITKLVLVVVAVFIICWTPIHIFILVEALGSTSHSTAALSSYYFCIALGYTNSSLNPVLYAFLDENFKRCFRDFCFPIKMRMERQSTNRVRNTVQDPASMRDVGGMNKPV
Description: a) Ex-Vivo KOR Agonistic Activity Testing, Using Electrically Stimulated Mouse Vas Deferens (MVD) Model:
Ex-vivo, the kappa opioid receptor agonistic activity of test compounds were tested on the electrically stimulated mouse vas deferens (MVD) preparations (Henderson et al., Br. J. Pharmacol., 46, 764-766, 1972; Portoghese et al., Life Sci. 36, 801-805, 1985) and IC50 were determined. In general, vas deferentia were taken from male Swiss Albino mice (30-40 g) and suspended in 8 ml organ baths, at 31° C., containing modified Krebs-Henseleit solution, without magnesium sulphate. Each vas deferens was equilibrated for 45 min at 2.6 mN tension and then stimulated at supramaximal voltage with five 1 ms pulses, at a frequency of 0.1 Hz. Concentration-response curves were determined by cumulative dosing. Inhibitory Concentration, 50% (IC50) values were determined by Sigmoidal dose-response (variable slope) equation, using Prizm v 6.01. The kappa opioid receptor specificity was determined by rightward shift in concentration-response curves in presence of 1 nM norbinaltorphimine (norBNI), a selective kappa opioid receptor antagonist.

kappa opioid receptor [4] = target: T2, kappa opioid receptor (Homo sapiens, UniProt P41145); test: Invitro KOR agonistic activity, cAMP based functional assay; type: cell-based
T2 construct: grown in complete Ham's F-12 medium
T2 sequence (P41145 whole entry): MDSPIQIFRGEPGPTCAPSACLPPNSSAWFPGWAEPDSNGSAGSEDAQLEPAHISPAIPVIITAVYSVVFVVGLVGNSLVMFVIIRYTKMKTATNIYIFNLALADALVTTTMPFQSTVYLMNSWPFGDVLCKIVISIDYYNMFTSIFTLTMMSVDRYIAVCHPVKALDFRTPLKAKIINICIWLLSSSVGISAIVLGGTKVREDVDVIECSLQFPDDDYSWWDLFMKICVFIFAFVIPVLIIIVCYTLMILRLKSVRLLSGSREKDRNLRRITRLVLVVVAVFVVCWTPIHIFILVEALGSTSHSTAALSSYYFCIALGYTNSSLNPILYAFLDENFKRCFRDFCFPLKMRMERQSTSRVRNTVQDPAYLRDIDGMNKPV

Row | Molecule | IC50 (kappa opioid receptor [3]) [nM] | EC50 (kappa opioid receptor [4]) [nM] | further results
1 | CN(C(=O)COc1ccc2c(c1)OCO2)[C@H](CN1CC[C@H](O)C1)c1cccc(NS(C)(=O)=O)c1 [Compound 57, 2-(benzo[d][1,3]dioxol-5-yloxy)-N-((S)-2-((S)-3-hydroxypyrrolidin-1-yl)-1-(3-(methylsulfonamido)phenyl)ethyl)-N-methylacetamide] | 27 | 0.961 | CNS TD (ICR mice [1]): 60 mg/kg; ED50 (ICR mice [2]): 1.9 mg/kg
2 | CN(C(=O)COc1ccc2c(c1)CCCN2S(C)(=O)=O)[C@H](CN1CC[C@H](O)C1)c1ccccc1 [Compound 20, N-((S)-2-((S)-3-hydroxypyrrolidin-1-yl)-1-phenylethyl)-N-methyl-2-((1-(methylsulfonyl)-1,2,3,4-tetrahydroquinolin-6-yl)oxy)acetamide] | 1740 | 2.12 | CNS TD (ICR mice [1]): 30 mg/kg; ED50 (ICR mice [2]): 1.8 mg/kg
3 | CN1CCCc2c(OCC(=O)N(C)[C@H](CN3CC[C@H](O)C3)c3ccccc3)ccc(NS(C)(=O)=O)c21 [Compound 22, N-((S)-2-((S)-3-hydroxypyrrolidin-1-yl)-1-phenylethyl)-N-methyl-2-((1-methyl-8-(methylsulfonamido)-1,2,3,4-tetrahydroquinolin-5-yl)oxy)acetamide] | 8.1 | 0.008 | CNS TD (ICR mice [1]): 60 mg/kg; ED50 (ICR mice [2]): 2.5 mg/kg
4 | CN(C(=O)COc1ccc(NS(C)(=O)=O)c2cccnc12)[C@H](CN1CC[C@H](O)C1)c1ccccc1 [Compound 6, N-((S)-2-((S)-3-hydroxypyrrolidin-1-yl)-1-phenylethyl)-N-methyl-2-((5-methylsulfonamido)quinolin-8-yloxy)acetamide] | 349 | 0.94 | CNS TD (ICR mice [1]): 30 mg/kg; ED50 (ICR mice [2]): 1.1 mg/kg
5 | CCN(CC)S(=O)(=O)Nc1ccc(OCC(=O)N(C)[C@H](CN2CC[C@H](O)C2)c2ccccc2)c2cccnc12 [Compound 25, 2-((8-((N,N-diethylsulfamoyl)amino)quinolin-5-yl)oxy)-N-((S)-2-((S)-3-hydroxypyrrolidin-1-yl)-1-phenylethyl)-N-methyl-acetamide] | 8.1 | 0.003 | –
6 | COC(=O)Nc1cccc([C@@H](CN2CC[C@H](O)C2)N(C)C(=O)COc2ccc3c(c2)OCO3)c1 [Compound 58, Methyl-(3-((S)-1-(2-(benzo[d][1,3]dioxol-5-yloxy)-N-methylacetamido)-2-((S)-3-hydroxypyrrolidin-1-yl)-ethyl)phenyl)carbamate] | 9.8 | 0.098 | –
7 | CN(C(=O)COc1ccc(NS(=O)(=O)CCl)c2ncccc12)[C@H](CN1CC[C@H](O)C1)c1ccccc1 [Compound 26] | 29 | 0.012 | –
8 | CN(C(=O)COc1cccc2c1N(S(C)(=O)=O)CCC2)[C@H](CN1CC[C@H](O)C1)c1ccccc1 [Compound 12, N-((S)-2-((S)-3-hydroxypyrrolidin-1-yl)-1-phenylethyl)-N-methyl-2-((1-(methylsulfonyl)-1,2,3,4-tetrahydroquinolin-8-yl)oxy)acetamide] | 2 | 0.005 | –
9 | Cc1cccc([C@@H](CN2CC[C@H](O)C2)N(C)C(=O)COc2ccc(NS(C)(=O)=O)c3ncccc23)c1 [Compound 54, N-((S)-2-((S)-3-hydroxypyrrolidin-1-yl)-1-(3-methyl)ethyl)-N-methyl-2-((8-(methylsulfonamido)quinolin-5-yl)oxy)acetamide] | 14 | 0.098 | –
10 | CC(=O)Nc1cccc([C@@H](CN2CC[C@H](O)C2)N(C)C(=O)COc2ccc(NS(C)(=O)=O)c3ncccc23)c1 [Compound 45, N-((S)-1-(3-acetamidophenyl)-2-((S)-3-hydroxypyrrolidin-1-yl)ethyl)-N-methyl-2-((8-(methylsulfonamido)quinolin-5-yl)oxy) acetamide] | 14 | 0.066 | –
11 | CN(C(=O)COc1ccc(NS(C)(=O)=O)c2nccnc12)[C@H](CN1CC[C@H](O)C1)c1ccccc1 [Compound 27, N-((S)-2-((S)-3-hydroxypyrrolidin-1-yl-)-1-phenylethyl)-N-methyl-2-((8-(methylsulfonamido)quinoxain-5-yl)oxy)acetamide] | 169 | 2.11 | –
12 | N-((S)-2-((S)-3-hydroxypyrrolidin-1-yl)-1-phenylethyl)- N-methyl-2-((8-sulfonamido)-1,2,3,4-tetrahydroquinolin- 5-yloxy)acetamide [Compound 37] | – | – | In-vivo ED50 (ICR mice [2]): 6.2 mg/kg; IC50 (kappa opioid receptor [3]; electrically stimulated mouse vas deferens preparation, cumulative dosing, read-out: Ex-vivo IC50): 0.3 nM; EC50 (kappa opioid receptor [4]; cAMP direct ELISA, forskolin 20 μM, agonist 20 minutes, read-out: In-vitro EC50): 0.013 nM
13 | CN(C(=O)COc1ccc(NS(C)(=O)=O)c2c1NCCC2)[C@H](CN1CC[C@H](O)C1)c1ccccc1 [Compound 14, N-((S)-2-((S)-3-hydroxypyrrolidin-1-yl)-1-phenylethyl)-N-methyl-2-((5-(methylsulfonamido)-1,2,3,4-tetrahydroquinolin-8-yl)oxy)acetamide] | 5.4 | 0.012 | –
14 | COCC(=O)Nc1ccc(OCC(=O)N(C)[C@H](CN2CC[C@H](O)C2)c2ccccc2)c2cccnc12 [Compound 35, N-((S)-2-((S)-3-hydroxypyrrolidin-1-yl)-1-phenylethyl)-2-((8-(2-methoxyacetamido)quinolin-5-yl)oxy)-N-methylacetamide] | 48 | 0.06 | –
15 | CN(C(=O)COc1ccc2occc2c1)[C@H](CN1CC[C@H](O)C1)c1ccccc1 [Compound 16] | 4 | 0.04 | –
16 | CN(C(=O)COc1ccc(NC(=O)CO)c2ncccc12)[C@H](CN1CC[C@H](O)C1)c1ccccc1 [Compound 34, 2-((8-(2-hydroxyacetamido)quinolin-5-yl)oxy)-N-((S)-2-((S)-3-hydroxypyrrolidin-1-yl)-1-phenylethyl)-N-methylacetamide] | 258 | 0.49 | –
17 | CC(=O)N1CCCc2c(OCC(=O)N(C)[C@H](CN3CC[C@H](O)C3)c3ccccc3)ccc(NS(C)(=O)=O)c21 [Compound 31, 2-((l-acetyl-8-(methylsulfonamido)-1,2,3,4-tetrahydroquinolin-5-yl)oxy)-N-((S)-2-((S)-3-hydroxypyrrolidin-1-yl)-1-phenylethyl)-N-methylacetamide] | 118 | 0.51 | –
18 | CN(C(=O)COc1ccc(NS(C)(=O)=O)c2ncccc12)[C@H](CN1CC[C@H](O)C1)c1cccc(F)c1 [Compound 52, N-((S)-1-(3-fluorophenyl)-2-((S)-3-hydroxypyrrolidin-1-yl)ethyl)-N-methyl-2-((8-(methylsulfonamido)quinolin-5-yl)oxy) acetamide] | 21 | 0.18 | –
19 | CNS(=O)(=O)Nc1ccc(OCC(=O)N(C)[C@H](CN2CC[C@H](O)C2)c2ccccc2)c2cccnc12 [Compound 23, N-((S)-2-((S)-3-hydroxypyrrolidin-1-yl)-1-phenylethyl)-N-methyl-2-((8-((N-methylsulfamoyl)amino)quinolin-5-yl)oxy)-acetamide] | 8.4 | 0.017 | –
20 | CN(C(=O)COc1cccc2ncccc12)[C@H](CN1CC[C@H](O)C1)c1cccc(NS(C)(=O)=O)c1 [Compound 46] | 9.5 | 0.042 | –
21 | CN(C(=O)COc1ccc(NS(C)(=O)=O)c2ncccc12)[C@H](CN1CC[C@H](O)C1)c1ccccc1 [Compound 5, N-((S)-2-((S)-3-hydroxypyrrolidin-1-yl)-1-phenylethyl)-N-methyl-2-((8-methylsulfonamido)quinolin-5-yloxy)acetamide] | 5.6 | 0.013 | –
22 | CN(C(=O)COc1ccc2ccoc2c1)[C@H](CN1CC[C@H](O)C1)c1cccc(NS(C)(=O)=O)c1 [Compound 56, 2-(benzofuran-6-yloxy)-N-((S)-2-((S)-3-hydroxypyrrolidin-1-yl)-1-(3-(methylsulfonamido)phenyl)ethyl)-N-methylacetamide] | 88 | 1.11 | –
23 | CN(C)c1cccc([C@@H](CN2CC[C@H](O)C2)N(C)C(=O)COc2ccc(NS(C)(=O)=O)c3ncccc23)c1 [Compound 47, N-((S)-1-(3-dimethylaminophenyl)-2-((S)-3-hydroxypyrrolidin-1-yl)ethyl)-N-methyl-2-((8-(methylsulfonamido)quinolin-5-yl)oxy) acetamide] | 88 | 0.691 | –
24 | CN(C(=O)COc1ccc(NCCO)c2ncccc12)[C@H](CN1CC[C@H](O)C1)c1ccccc1 [Compound 41] | 254 | 1.32 | –
